# Measurements from ChEMBL document CHEMBL1201862, “PubChem BioAssay data set” (2004).
# Activity calls are given as the source filed them.
# What was measured:
# [1] = molecular target: Dual specificity tyrosine-phosphorylation-regulated kinase 1A (Rattus norvegicus, UniProt Q63470); type: biochemical, Homo sapiens
# [2] = HeLa cell cytotoxicity, dose response, cytotoxicity control for MgcRacGAP inhibitor project (AID 624300); type: functional
# [3] = molecular target: T1, Rac GTPase-activating protein 1 (Homo sapiens, UniProt Q9H0H5); assay: MgcRacGAP GTPase-activating activity inhibitors, confirmation, biochemical, ADP Hunter fluorescence, primary and confirmatory (AID 624330); type: functional
# T1 sequence (Q9H0H5 whole entry): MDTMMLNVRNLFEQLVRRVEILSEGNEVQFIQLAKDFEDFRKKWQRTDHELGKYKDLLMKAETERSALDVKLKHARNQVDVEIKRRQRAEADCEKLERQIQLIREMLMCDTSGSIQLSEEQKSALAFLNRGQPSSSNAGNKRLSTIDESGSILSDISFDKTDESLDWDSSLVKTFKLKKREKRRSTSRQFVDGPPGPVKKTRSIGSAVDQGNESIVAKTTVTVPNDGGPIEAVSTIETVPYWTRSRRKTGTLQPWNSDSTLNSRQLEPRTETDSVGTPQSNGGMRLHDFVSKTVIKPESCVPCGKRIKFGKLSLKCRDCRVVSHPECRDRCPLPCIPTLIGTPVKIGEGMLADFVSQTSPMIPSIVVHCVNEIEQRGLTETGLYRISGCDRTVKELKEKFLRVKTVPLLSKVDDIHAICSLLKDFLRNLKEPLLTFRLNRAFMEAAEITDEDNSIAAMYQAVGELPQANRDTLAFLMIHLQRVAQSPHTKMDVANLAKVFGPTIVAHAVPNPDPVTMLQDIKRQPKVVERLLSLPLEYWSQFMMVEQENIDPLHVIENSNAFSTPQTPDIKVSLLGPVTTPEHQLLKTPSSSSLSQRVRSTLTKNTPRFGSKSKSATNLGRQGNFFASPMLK
# [4] = Late stage assay provider results from the probe development effort to identify selective inhibitors of heat shock protein 90 (HSP90): Absorbance-based cell proliferation assay in SKBR3 cells.; type: functional; conditions: SK-BR-3
# [5] = Late stage assay provider results from the probe development effort to identify selective inhibitors of heat shock protein 90 (HSP90): Absorbance-based cell proliferation assay in MCF7 cells.; type: functional
# [6] = molecular target: T2, Voltage-gated N-type calcium channel alpha-1B subunit/Amyloid beta A4 precursor protein-binding family A member 1 (Homo sapiens, UniProt Q00975+Q02410); type: protein assay
# [7] = molecular target: T2, Voltage-gated N-type calcium channel alpha-1B subunit/Amyloid beta A4 precursor protein-binding family A member 1; type: protein assay; remark: listed apart in the source
# [8] = system: H9c2; assay: cells; type: functional, cell-based; conditions: Rattus norvegicus, H9c2, Myocardium;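 note: confirmatory concentration-response retest of ultra-high-throughput screening hits for modulation of myocardial damage; cell death induced by hydrogen peroxide oxidative stress; compound pretreatment for 60 min then peroxide exposure for 2 h; potency is for protecting the cells against peroxide damage rather than for killing them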
# [9] = molecular target: T3, Probable nicotinate-nucleotide adenylyltransferase (Staphylococcus aureus (strain N315), UniProt P65502); type: functional, Staphylococcus aureus subsp. aureus N315;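 for IC50 Mean: confirmatory dose-response retesting of NadD inhibitor hits first found in an ultra-high-throughput screen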
# [10] = molecular target: T3, Probable nicotinate-nucleotide adenylyltransferase; type: functional, Staphylococcus aureus subsp. aureus N315; conditions: read-out: IC50_Mean
# [11] = molecular target: T4, Caspase-6 (Homo sapiens, UniProt P55212); assay: human caspase-6 inhibitors, dose response, biochemical, VEID-R110 fluorescence, cherry-pick (AID 720632)
# T4 sequence (P55212 whole entry): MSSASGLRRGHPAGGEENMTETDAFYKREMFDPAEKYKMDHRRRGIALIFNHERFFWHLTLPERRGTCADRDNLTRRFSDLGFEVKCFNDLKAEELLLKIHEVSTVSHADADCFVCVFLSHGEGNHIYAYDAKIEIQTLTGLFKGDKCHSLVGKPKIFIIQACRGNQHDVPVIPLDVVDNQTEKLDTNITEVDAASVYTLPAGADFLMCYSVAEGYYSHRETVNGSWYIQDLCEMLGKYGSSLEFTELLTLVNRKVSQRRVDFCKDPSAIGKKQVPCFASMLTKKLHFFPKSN
# [12] = P. falciparum Dd2 growth inhibitors, dose response, SYBR Green, cherry-picked samples (AID 1159567); type: functional, cell-based
# [13] = HepG2 cell cytotoxicity, dose response, cytotoxicity control, cherry-picked samples (AID 1159577); type: functional, cell-based
# [14] = P. falciparum 3D7-ScDHODH growth inhibitors, dose response, SYBR Green, dry powder samples (AID 1159570); type: functional, cell-based;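 note: parasite growth measured after 72 hours of compound exposure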
# [15] = P. falciparum Dd2 growth inhibitors, dose response, SYBR Green, dry powder samples (AID 1159566); type: functional, cell-based;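 note: potency for growth inhibition with lower SYBR green DNA signal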
# [16] = P. falciparum ATP4 D1247Y mutant growth inhibitors, dose response, NITD609-resistant line, SYBR Green, dry powder (AID 1159571); type: functional, cell-based;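 note: parasites synchronized at ring stage by sorbitol before testing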
# [17] = molecular target: Ephrin type-A receptor 4 (Mus musculus, UniProt Q03137); assay: inhibitors of EphA4 binding to KYL peptide, primary screen, biochemical, colorimetric, mouse EphA4 (AID 689); type: functional
# [18] = molecular target: Prothrombin (Homo sapiens, UniProt P00734); assay: Thrombin 1536 HTS Dose Response Confirmation. [Related pubchem assays: 1046 (Thrombin 1536 HTS; hits were confirmed in this assay)]; type: functional
# [19] = molecular target: T5, Protein skinhead-1 (Caenorhabditis elegans, UniProt P34707); type: functional
# T5 sequence (P34707 whole entry): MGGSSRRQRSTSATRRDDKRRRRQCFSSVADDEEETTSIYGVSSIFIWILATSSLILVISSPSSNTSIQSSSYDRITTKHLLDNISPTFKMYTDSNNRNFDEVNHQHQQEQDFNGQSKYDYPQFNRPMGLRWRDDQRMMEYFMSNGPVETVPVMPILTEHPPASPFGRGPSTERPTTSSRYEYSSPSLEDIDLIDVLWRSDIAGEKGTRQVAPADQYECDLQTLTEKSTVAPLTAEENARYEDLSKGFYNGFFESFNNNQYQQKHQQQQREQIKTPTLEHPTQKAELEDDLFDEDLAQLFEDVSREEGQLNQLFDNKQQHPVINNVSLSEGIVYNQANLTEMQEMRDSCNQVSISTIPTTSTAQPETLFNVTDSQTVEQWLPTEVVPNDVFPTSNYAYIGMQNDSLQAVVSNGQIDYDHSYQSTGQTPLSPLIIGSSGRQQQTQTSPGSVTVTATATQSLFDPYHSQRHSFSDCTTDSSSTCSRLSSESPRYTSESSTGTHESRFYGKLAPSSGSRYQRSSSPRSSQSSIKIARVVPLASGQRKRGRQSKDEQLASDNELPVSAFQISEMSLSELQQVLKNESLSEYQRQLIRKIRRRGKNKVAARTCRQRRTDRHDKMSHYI
# [20] = molecular target: Cytochrome P450 2D6 (Homo sapiens, UniProt P10635);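 note: CYP2D6 member of a cytochrome P450 panel assay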
# [21] = inhibitors of clade B AD8 Env fusion, dose response, cell-based, cherry-pick (AID 652062); type: functional;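 note: luciferase signal from cell-cell fusion driven by HIV-1 clade B AD8 Env; potency is for inhibitors of fusion seen as a drop in luminescence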
# [22] = Luminescence Cell-Based Dose Response HTS to Identify Inhibitors of 5'UTR Stem-Loop Driven Prion Protein mRNA Translation in H4 Neuroglioblastoma Cells. [Related pubchem assays: 1827 (Project Summary), 1813 (Primary HTS)]; type: functional
# [23] = cells; type: functional, cell-based
# [24] = molecular target: T6, Trace amine-associated receptor 1 (Homo sapiens, UniProt Q96RJ0); assay: Fluorescence-based cell-based high throughput dose response assay to identify agonists of the human trace amine associated receptor 1 (TAAR1).; type: functional
# T6 sequence (Q96RJ0 whole entry): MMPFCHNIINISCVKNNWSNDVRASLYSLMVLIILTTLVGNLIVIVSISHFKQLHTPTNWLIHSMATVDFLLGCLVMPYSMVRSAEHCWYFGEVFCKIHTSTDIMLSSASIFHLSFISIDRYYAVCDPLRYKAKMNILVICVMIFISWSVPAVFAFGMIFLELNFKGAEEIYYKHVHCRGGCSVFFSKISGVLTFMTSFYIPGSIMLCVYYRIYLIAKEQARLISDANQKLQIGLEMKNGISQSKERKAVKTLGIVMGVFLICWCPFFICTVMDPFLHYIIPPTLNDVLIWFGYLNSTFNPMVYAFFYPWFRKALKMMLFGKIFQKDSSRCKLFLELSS
# [25] = molecular target: T6, Trace amine-associated receptor 1; assay: Counterscreen for agonists of the human trace amine associated receptor 1 (hTAAR1): Fluorescence-based cell-based high throughput dose response assay to identify hTAAR1 agonist that also desensitize TAAR1 receptor response.; type: functional
# [26] = cells; type: functional, cell-based; remark: listed apart in the source
# [27] = A549 cell cytotoxicity, dose response, cytotoxicity control, plate reader, cherry-pick, antagonist series (AID 743412); type: functional, cell-based
# [28] = HepG2 cell cytotoxicity, dose response, cytotoxicity control, plate reader, cherry-pick, antagonist series (AID 743416); type: functional, cell-based
# [29] = LGR2 antagonists, dose response, cell-based, HEK293, CRE-luciferase reporter, cherry pick, set 2 (AID 743343); type: functional;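 note: transfected cells were stimulated with diluted bursicon conditioned medium after compound addition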
# [30] = MC4R antagonists, dose response, counter-screen for LGR2 antagonist project, cell-based, plate reader, cherry pick (AID 743444); type: functional;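 note: transfected HEK 293 cells stimulated with alpha-MSH peptide; potency of inhibitors of the alpha-MSH evoked signal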
# Sequence of Ephrin type-A receptor 4 (Q03137 whole entry): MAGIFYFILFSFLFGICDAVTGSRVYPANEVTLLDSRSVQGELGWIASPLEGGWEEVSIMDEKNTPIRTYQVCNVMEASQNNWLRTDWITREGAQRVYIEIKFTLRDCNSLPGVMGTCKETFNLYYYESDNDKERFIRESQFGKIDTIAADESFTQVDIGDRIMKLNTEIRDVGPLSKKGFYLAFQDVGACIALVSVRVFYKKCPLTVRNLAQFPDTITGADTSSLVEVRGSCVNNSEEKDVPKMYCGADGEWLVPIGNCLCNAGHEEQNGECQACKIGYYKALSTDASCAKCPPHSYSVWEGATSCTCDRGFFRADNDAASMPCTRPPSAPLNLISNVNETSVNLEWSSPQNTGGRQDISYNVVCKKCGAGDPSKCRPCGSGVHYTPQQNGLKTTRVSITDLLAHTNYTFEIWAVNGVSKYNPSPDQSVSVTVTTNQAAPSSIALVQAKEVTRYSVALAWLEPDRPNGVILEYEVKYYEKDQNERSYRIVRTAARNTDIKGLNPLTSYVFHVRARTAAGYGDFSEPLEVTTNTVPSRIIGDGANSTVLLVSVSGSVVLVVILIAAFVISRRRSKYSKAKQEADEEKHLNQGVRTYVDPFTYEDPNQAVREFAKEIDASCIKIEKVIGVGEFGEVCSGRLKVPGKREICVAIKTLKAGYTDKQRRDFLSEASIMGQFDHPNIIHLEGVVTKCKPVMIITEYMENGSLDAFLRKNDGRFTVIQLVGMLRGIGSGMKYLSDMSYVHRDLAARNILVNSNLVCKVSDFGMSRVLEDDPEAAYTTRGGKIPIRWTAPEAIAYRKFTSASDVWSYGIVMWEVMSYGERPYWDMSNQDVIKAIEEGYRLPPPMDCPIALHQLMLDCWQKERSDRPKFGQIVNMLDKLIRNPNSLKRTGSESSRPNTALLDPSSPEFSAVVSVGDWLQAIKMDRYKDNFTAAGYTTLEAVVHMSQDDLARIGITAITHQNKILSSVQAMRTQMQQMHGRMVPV
# T3 sequence (P65502 whole entry): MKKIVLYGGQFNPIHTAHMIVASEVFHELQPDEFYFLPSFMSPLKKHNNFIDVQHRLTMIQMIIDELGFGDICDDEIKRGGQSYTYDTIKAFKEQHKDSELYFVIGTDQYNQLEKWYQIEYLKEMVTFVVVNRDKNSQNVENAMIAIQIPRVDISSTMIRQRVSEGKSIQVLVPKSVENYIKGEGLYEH
# T2 sequence (Q00975 whole entry): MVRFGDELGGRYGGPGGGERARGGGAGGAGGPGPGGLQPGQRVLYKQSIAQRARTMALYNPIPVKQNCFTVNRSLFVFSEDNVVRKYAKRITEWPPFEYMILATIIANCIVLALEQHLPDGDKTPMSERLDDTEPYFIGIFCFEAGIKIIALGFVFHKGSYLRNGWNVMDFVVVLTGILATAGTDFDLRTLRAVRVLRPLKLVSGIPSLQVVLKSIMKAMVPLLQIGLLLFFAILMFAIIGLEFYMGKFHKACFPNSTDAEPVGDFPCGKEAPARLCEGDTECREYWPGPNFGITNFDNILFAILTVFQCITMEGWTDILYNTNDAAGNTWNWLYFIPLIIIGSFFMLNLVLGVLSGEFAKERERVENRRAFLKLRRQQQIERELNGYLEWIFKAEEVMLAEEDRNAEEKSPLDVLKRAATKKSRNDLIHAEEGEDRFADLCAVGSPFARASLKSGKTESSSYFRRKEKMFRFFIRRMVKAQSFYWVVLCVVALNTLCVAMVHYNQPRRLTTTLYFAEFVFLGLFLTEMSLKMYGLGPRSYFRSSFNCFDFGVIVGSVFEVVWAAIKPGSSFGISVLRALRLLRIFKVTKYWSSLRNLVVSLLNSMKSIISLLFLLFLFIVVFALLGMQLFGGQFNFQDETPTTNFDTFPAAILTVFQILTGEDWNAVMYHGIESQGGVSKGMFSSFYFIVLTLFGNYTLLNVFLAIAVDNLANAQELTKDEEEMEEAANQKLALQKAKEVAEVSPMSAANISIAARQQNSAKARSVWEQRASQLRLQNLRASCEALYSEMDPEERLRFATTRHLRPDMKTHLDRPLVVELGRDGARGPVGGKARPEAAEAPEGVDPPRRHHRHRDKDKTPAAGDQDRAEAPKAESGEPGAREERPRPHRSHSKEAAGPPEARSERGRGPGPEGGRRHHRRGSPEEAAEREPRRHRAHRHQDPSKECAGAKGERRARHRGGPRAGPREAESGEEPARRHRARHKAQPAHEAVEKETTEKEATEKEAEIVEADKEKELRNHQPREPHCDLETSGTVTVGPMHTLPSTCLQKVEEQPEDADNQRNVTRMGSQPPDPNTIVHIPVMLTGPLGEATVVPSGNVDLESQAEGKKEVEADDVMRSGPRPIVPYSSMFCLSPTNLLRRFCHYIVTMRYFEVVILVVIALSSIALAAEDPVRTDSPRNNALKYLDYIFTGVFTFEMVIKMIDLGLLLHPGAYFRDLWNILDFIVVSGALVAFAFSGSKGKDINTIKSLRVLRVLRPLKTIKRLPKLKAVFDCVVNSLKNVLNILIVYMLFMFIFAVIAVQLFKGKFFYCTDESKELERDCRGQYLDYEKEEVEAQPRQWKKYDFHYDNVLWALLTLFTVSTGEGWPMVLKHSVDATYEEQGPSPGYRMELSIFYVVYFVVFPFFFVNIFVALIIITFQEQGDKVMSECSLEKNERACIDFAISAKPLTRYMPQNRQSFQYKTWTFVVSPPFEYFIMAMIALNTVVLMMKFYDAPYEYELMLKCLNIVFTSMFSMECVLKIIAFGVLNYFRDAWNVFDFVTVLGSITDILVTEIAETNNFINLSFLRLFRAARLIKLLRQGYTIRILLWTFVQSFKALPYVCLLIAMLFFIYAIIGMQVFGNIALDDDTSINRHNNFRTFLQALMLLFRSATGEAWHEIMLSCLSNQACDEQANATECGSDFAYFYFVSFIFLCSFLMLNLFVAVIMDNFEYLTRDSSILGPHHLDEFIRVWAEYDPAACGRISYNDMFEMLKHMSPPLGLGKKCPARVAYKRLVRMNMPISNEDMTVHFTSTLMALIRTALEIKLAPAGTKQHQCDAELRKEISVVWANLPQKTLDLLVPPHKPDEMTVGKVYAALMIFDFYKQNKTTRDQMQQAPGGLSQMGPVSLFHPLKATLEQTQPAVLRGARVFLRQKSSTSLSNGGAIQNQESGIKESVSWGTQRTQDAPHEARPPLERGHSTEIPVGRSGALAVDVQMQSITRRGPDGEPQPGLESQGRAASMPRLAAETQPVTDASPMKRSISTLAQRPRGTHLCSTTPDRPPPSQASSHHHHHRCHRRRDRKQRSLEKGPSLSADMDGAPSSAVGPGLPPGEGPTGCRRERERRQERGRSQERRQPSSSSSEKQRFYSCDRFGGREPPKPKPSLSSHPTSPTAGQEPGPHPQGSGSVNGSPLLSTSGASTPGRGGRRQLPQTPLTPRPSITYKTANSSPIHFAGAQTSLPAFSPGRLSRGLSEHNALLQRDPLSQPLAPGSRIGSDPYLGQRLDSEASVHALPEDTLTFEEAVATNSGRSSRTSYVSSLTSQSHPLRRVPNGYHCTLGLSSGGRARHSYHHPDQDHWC
# T2 sequence (Q02410 whole entry): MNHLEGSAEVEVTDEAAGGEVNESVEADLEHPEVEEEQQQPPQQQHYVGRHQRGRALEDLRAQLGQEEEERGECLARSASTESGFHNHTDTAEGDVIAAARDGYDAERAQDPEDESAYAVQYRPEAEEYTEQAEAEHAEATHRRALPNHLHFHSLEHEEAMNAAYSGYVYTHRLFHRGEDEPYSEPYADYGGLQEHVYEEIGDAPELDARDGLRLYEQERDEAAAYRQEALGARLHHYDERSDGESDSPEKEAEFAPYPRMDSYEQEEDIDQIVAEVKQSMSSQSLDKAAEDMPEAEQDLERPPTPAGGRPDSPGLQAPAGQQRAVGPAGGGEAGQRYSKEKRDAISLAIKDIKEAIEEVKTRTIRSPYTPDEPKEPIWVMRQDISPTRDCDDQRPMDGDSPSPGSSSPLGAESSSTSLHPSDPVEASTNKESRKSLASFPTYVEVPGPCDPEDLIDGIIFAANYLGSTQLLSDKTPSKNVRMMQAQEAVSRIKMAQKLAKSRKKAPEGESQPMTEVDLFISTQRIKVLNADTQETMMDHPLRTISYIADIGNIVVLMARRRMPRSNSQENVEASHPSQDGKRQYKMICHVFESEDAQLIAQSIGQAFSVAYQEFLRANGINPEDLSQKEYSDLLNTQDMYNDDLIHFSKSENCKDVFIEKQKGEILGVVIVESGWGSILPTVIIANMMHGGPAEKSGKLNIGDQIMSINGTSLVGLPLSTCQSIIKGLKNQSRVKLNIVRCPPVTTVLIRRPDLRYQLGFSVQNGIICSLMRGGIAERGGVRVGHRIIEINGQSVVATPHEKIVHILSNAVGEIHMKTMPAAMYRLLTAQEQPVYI
# Sequence of Cytochrome P450 2D6 (P10635 whole entry, the tested form may be a part): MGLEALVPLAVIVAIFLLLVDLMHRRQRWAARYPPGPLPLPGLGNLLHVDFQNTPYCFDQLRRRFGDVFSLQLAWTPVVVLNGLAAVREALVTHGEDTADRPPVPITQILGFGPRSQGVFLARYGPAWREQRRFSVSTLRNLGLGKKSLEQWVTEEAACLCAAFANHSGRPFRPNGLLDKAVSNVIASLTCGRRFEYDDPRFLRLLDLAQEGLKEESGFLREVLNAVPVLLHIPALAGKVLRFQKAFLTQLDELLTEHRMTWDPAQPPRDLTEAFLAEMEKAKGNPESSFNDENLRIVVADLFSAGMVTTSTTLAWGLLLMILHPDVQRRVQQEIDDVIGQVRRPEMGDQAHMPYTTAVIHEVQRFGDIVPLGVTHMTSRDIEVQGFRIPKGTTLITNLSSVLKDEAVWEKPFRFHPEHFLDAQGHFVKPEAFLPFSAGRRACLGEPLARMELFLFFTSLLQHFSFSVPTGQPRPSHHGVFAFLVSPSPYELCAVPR
compound,measurement,setting,value
C/N=C1/S/C(=C\c2ccc(O)c(Br)c2)C(=O)N1C,AC50,[1],0.194 µM (active)
same,CC50,[2],74.9 µM (active)
same,IC50,[3],42 µM (active)
CCc1nc(Nc2ccc(O)cc2)c2oc3ccccc3c2n1,CC50,[2],87.6 µM (active)
same,IC50,[3],18.2 µM (active)
CCCCc1ccc(NC(=O)c2cc(=O)c(OC)c[nH]2)cc1,IC50,[4],> 100 µM (inactive)
same,IC50,[5],> 100 µM (inactive)
Cn1c2ccccc2c2cc(/C=N/NC(=O)c3cc(O)ccc3O)ccc21,IC50,[6],15.2 µM (active)
same,IC50,[7],4.94 µM (active)
same,IC50,[8],> 79 µM (inactive)
same,IC50,[9],18 µM (active)
same,IC50,[10],37.3 µM (active)
same,AC50,[11],43.1 µM (active)
COc1ccccc1-c1ccc2c(c1)[C@H]1[C@H](CCN1C(=O)C1CCC1)[C@H](CO)N2,AC50,[12],5.25 µM (active)
same,AC50,[13],30.5 µM (active)
COc1ccc2c3c(n(C)c2c1)[C@@H](CO)N(C(=O)C1CC1)CC31CN(C(=O)Nc2cccc(F)c2)C1,AC50,[14],0.209 µM (active)
same,AC50,[12],0.692 µM (active)
same,AC50,[15],0.196 µM (active)
same,AC50,[16],0.164 µM (active)
CN1C(=O)c2cc(NC(=O)c3ccc4c(c3)OCO4)ccc2OC[C@@H]2O[C@@H](CC(=O)O)CC[C@@H]21,AC50,[13],38.5 µM (active)
Fc1ccc(-c2cc3nc4c(c(N5CCOCC5)n3n2)CCCC4)cc1,IC50,[17],> 100 µM (not active)
CCOc1ccc(NC(=O)c2ccc(CNc3c(N4CCCC4)c(=O)c3=O)cc2)cc1,IC50,[18],> 50 µM (not active)
COc1ccc(S(=O)(=O)CCc2nnc(NC(=O)c3cccs3)s2)cc1,IC50,[18],> 50 µM (not active)
CCOc1ccc(/C=C/C2=Cc3c(sc(NC(=O)CSc4nnc(N)[nH]4)c3C#N)C(C)(C)C2)cc1,IC50,[17],1.79 µM (active)
same,IC50,[19],60.8 µM (inactive)
same,AC50,[20],1.78 µM (inconclusive)
COc1ccc2oc(=O)c(Br)cc2c1,IC50,[4],80.2 µM (inactive)
same,IC50,[5],> 100 µM (inactive)
COc1ccc2c3c([nH]c2c1)[C@H](CO)N(S(=O)(=O)c1ccc(C)cc1)CC31CCN(C(=O)Cc2cccnc2)CC1,AC50,[14],0.54 µM (active)
same,AC50,[12],1.19 µM (active)
same,AC50,[15],0.332 µM (active)
same,AC50,[13],> 39 µM (inactive)
same,AC50,[16],0.265 µM (active)
CCCCS(=O)(=O)N1CCN(C(=O)C(=O)c2cccc(C(F)(F)F)c2)CC1,AC50,[21],49.5 µM (active)
N#Cc1sc2nc(-c3cccs3)cc(-c3ccccc3)c2c1N,IC50,[17],> 100 µM (not active)
O=C1OC(=O)/C(=C\NC23CC4CC(CC(C4)C2)C3)C=C1Br,IC50,[4],12.9 µM (inactive)
same,IC50,[5],2.6 µM (active)
O=C(c1cccc([N+](=O)[O-])c1)n1nc(-c2ccccc2)nc1NCc1ccccc1,IC50,[18],0.521 µM (active)
Cc1cc(N(CCCl)CCCl)ccc1C=NNC(=O)Cc1cc(=O)oc2cc(O)ccc12,IC50,[9],8.75 µM (active)
same,IC50,[10],28.7 µM (active)
COc1cc(/C=C2\SC(Nc3ccccc3)=NC2=O)cc(Cl)c1O,AC50,[1],7.03 µM (active)
same,CC50,[2],100 µM (active)
same,IC50,[3],55.7 µM (active)
Cc1ccc(Nc2nc(N)c3ccccc3n2)cc1C,EC50,[22],7.32 µM (active)
same,IC50,[23],> 29.9 µM (inactive)
same,EC50,[24],4.53 µM (active)
same,IC50,[25],8.34 µM (active)
same,EC50,[26],> 29.9 µM (inactive)
same,AC50,[27],34 µM (active)
same,AC50,[28],2.36 µM (active)
same,AC50,[29],2.9 µM (active)
same,AC50,[30],5 µM (active)
COc1ccc(NC(=O)N(C)C[C@H]2Oc3ccc(NC(=O)c4ccncc4)cc3C(=O)N([C@H](C)CO)C[C@@H]2C)cc1,IC50,[9],27.8 µM (active)
same,IC50,[10],40.4 µM (active)
CCOc1ccccc1N/C=C1\C(=O)OC(=O)c2ccccc21,IC50,[4],> 100 µM (inactive)
same,IC50,[5],> 100 µM (inactive)
